According to PMC11356900, “Synthesis, Structural Properties and Biological Activities of Novel Hydrazones of 2-, 3-, 4-Iodobenzoic Acid” (Molecules, 2024):

Experiments:
Experiment in all cases: MTT cytotoxicity assay
Format in all cases: cell-based
HeLa cell line = conditions: for cytotoxicity: 24 h culture
Experimental: (§1) Among all the newly synthesized compounds, four compounds designated as: 14, 20, 21 and 27 were selected for further testing of their cytotoxic properties at the doses of 10, 25, 50, 75 and 100 µM. The cytotoxic properties of the above compounds were tested on the cancer cell lines, i.e., A549 (ECACC 86012804) (non-small-cell lung cancer), T47D (ECACC 85102201) (breast cancer), HeLa (ATCC® CCL-2™) (cervical cancer) and normal line L929 (NCTC clone 929, ATCC® CCL-1™) (mouse fibroblasts) using the MTT test for 24- and 48 h cultures.
(§2) A549 (ECACC 86012804) (non-small-cell lung cancer) and T47D (ECACC 85102201) (breast cancer) were obtained from ECACC and propagated in Dulbecco’s Minimal Essential Medium, supplemented with 2 mM of glutamine, antibiotics ([…] streptomycin, 1% of 100 U/L penicillin) and 10% Fetal Bovine Serum. HeLa (ATCC® CCL-2™) (cervical cancer) and L929 (NCTC clone 929, ATCC® CCL-1™) (mouse fibroblasts) cell lines were obtained from ATCC and propagated in the Eagle Minimal Essential Medium supplemented with antibiotics ([…] streptomycin, 1% of 100 U/L penicillin) and with 10% and 5% FBS, respectively. The cell line was routinely grown in 75 cm^2 tissue culture flasks and kept in an incubator (humidified atmosphere of 5% CO2 at 37 °C). All examined cell lines were tested against mycoplasma contamination with microbiological assays.
(§3) The cell viability of tested compounds (14, 20, 21 and 27) was assessed by the MTT assay. In brief, the exponentially growing cells were plated in 100 μL/well in 96-well plates. After 24 h culturing, the cells were treated with different concentrations of compounds (range 10–100 μM). After 24 and 48 h of incubation, 10 μL of 5 mg/mL MTT was added to each well and the plates were incubated at 37 °C for additional 4 h. The medium was subsequently removed, the purple-colored precipitates of formazan were dissolved in 100 μL of DMSO. The color absorbance was recorded at 570 nm using a BioTek model EPOCH ELISA plate reader. All experiments were performed in triplicate. The absorbance values were in the range of linearity of the Lambert–Beer law.

T47D cell line = test system: T47D cell line
Experimental: as §1, §2, §3

A549 cell line = test system: A549 cell line
Experimental: as §1, §2, §3

With O=C(N/N=C/c1cc(Cl)cc(I)c1O)c1ccc(I)cc1 [Compound 27, N-[(5-chloro-2-hydroxy-3-iodophenyl)methylidene]-4-iodobenzohydrazide] the cell proliferation (HeLa cell line; 24h, 10 µM, Repeat No 1) was 74%, the cell proliferation (HeLa cell line; 24h, 10 µM, Repeat No 2) was 83% and the cell proliferation (HeLa cell line; 24h, 25 µM, Repeat No 1) was 69%. For the same molecule, the cell proliferation (HeLa cell line; 24h, 25 µM, Repeat No 2) was 73%, the cell proliferation (HeLa cell line; 24h, 50 µM, Repeat No 1) was 61% and the cell proliferation (HeLa cell line; 24h, 50 µM, Repeat No 2) was 67%. For the same molecule, the cell proliferation (HeLa cell line; 24h, 75 µM, Repeat No 1) was 72%, the cell proliferation (HeLa cell line; 24h, 75 µM, Repeat No 2) was 69% and the cell proliferation (HeLa cell line; 24h, 100 µM, Repeat No 1) was 63%. For the same molecule, the cell proliferation (HeLa cell line; 24h, 100 µM, Repeat No 2) was 59%, the cytotoxicity (HeLa cell line; dose of 50 µM) was 37% and the cytotoxicity (HeLa cell line; dose of 100 µM) was 41%. It also gave a cell proliferation (HeLa cell line; 48h, 10 µM, Repeat No 1) of 77%, a cell proliferation (HeLa cell line; 48h, 10 µM, Repeat No 2) of 82% and a cell proliferation (HeLa cell line; 48h, 25 µM, Repeat No 1) of 82%. It also gave a cell proliferation (HeLa cell line; 48h, 25 µM, Repeat No 2) of 71%, a cell proliferation (HeLa cell line; 48h, 50 µM, Repeat No 1) of 61% and a cell proliferation (HeLa cell line; 48h, 50 µM, Repeat No 2) of 49%. It also gave a cell proliferation (HeLa cell line; 48h, 75 µM, Repeat No 1) of 51%, a cell proliferation (HeLa cell line; 48h, 75 µM, Repeat No 2) of 43% and a cell proliferation (HeLa cell line; 48h, 100 µM, Repeat No 1) of 63%. For the same molecule, the cell proliferation (HeLa cell line; 48h, 100 µM, Repeat No 2) was 57%, the cell proliferation (T47D cell line; 24h, 10 µM, Repeat No 1) was 96% and the cell proliferation (T47D cell line; 24h, 10 µM, Repeat No 2) was 91%. For the same molecule, the cell proliferation (T47D cell line; 24h, 25 µM, Repeat No 1) was 91%, the cell proliferation (T47D cell line; 24h, 25 µM, Repeat No 2) was 82% and the cell proliferation (T47D cell line; 24h, 50 µM, Repeat No 1) was 83%. The cell proliferation (T47D cell line; 24h, 50 µM, Repeat No 2) was 79%, the cell proliferation (T47D cell line; 24h, 75 µM, Repeat No 1) was 84% and the cell proliferation (T47D cell line; 24h, 75 µM, Repeat No 2) was 87%. The cell proliferation (T47D cell line; 24h, 100 µM, Repeat No 1) was 86%, the cell proliferation (T47D cell line; 24h, 100 µM, Repeat No 2) was 91% and the cell proliferation (T47D cell line; 48h, 10 µM, Repeat No 1) was 82%. For the same molecule, the cell proliferation (T47D cell line; 48h, 10 µM, Repeat No 2) was 75%, the cell proliferation (T47D cell line; 48h, 25 µM, Repeat No 1) was 88% and the cell proliferation (T47D cell line; 48h, 25 µM, Repeat No 2) was 84%. It also gave a cell proliferation (T47D cell line; 48h, 50 µM, Repeat No 1) of 81%, a cell proliferation (T47D cell line; 48h, 50 µM, Repeat No 2) of 80% and a cell proliferation (T47D cell line; 48h, 75 µM, Repeat No 1) of 79%. It also gave a cell proliferation (T47D cell line; 48h, 75 µM, Repeat No 2) of 72%, a cell proliferation (T47D cell line; 48h, 100 µM, Repeat No 1) of 83% and a cell proliferation (T47D cell line; 48h, 100 µM, Repeat No 2) of 81%. The cell proliferation (A549 cell line; A549, 24h, 10 µM, Repeat No 1) was 95%, the cell proliferation (A549 cell line; A549, 24h, 10 µM, Repeat No 2) was 92% and the cell proliferation (A549 cell line; A549, 24h, 25 µM, Repeat No 1) was 97%. For the same molecule, the cell proliferation (A549 cell line; A549, 24h, 25 µM, Repeat No 2) was 89%, the cell proliferation (A549 cell line; A549, 24h, 50 µM, Repeat No 1) was 94% and the cell proliferation (A549 cell line; A549, 24h, 50 µM, Repeat No 2) was 87%. For the same molecule, the cell proliferation (A549 cell line; A549, 24h, 75 µM, Repeat No 1) was 87%, the cell proliferation (A549 cell line; A549, 24h, 75 µM, Repeat No 2) was 92% and the cell proliferation (A549 cell line; A549, 24h, 100 µM, Repeat No 1) was 109%. For the same molecule, the cell proliferation (A549 cell line; A549, 24h, 100 µM, Repeat No 2) was 103%, the “effect on proliferation in words” value (A549 cell line; A549, 24 h culture, dose of 100 µM) was “increase in the proliferation of cancer cells” and the cell proliferation (A549 cell line; A549, 48h, 10 µM, Repeat No 1) was 84%. The cell proliferation (A549 cell line; A549, 48h, 10 µM, Repeat No 2) was 87%, the cell proliferation (A549 cell line; A549, 48h, 25 µM, Repeat No 1) was 87% and the cell proliferation (A549 cell line; A549, 48h, 25 µM, Repeat No 2) was 82%. For the same molecule, the cell proliferation (A549 cell line; A549, 48h, 50 µM, Repeat No 1) was 88%, the cell proliferation (A549 cell line; A549, 48h, 50 µM, Repeat No 2) was 89% and the cell proliferation (A549 cell line; A549, 48h, 75 µM, Repeat No 1) was 91%. It also gave a cell proliferation (A549 cell line; A549, 48h, 75 µM, Repeat No 2) of 87%, a cell proliferation (A549 cell line; A549, 48h, 100 µM, Repeat No 1) of 98% and a cell proliferation (A549 cell line; A549, 48h, 100 µM, Repeat No 2) of 95%.

For O=C(N/N=C/c1cc(Br)cc(Br)c1O)c1cccc(I)c1 [Compound 21, N-[(3,5-dibromo-2-hydroxyphenyl)methylidene]-3-iodobenzohydrazide], the cell proliferation (HeLa cell line; 24h, 10 µM, Repeat No 1) was 89%, the cell proliferation (HeLa cell line; 24h, 10 µM, Repeat No 2) was 88% and the cell proliferation (HeLa cell line; 24h, 25 µM, Repeat No 1) was 89%. The cell proliferation (HeLa cell line; 24h, 25 µM, Repeat No 2) was 92%, the cell proliferation (HeLa cell line; 24h, 50 µM, Repeat No 1) was 86% and the cell proliferation (HeLa cell line; 24h, 50 µM, Repeat No 2) was 104%. The cell proliferation (HeLa cell line; 24h, 75 µM, Repeat No 1) was 104%, the cell proliferation (HeLa cell line; 24h, 75 µM, Repeat No 2) was 87% and the cell proliferation (HeLa cell line; 24h, 100 µM, Repeat No 1) was 87%. It also gave a cell proliferation (HeLa cell line; 24h, 100 µM, Repeat No 2) of 91%, a cell proliferation (HeLa cell line; 48h, 10 µM, Repeat No 1) of 86% and a cell proliferation (HeLa cell line; 48h, 10 µM, Repeat No 2) of 93%. For the same molecule, the cell proliferation (HeLa cell line; 48h, 25 µM, Repeat No 1) was 101%, the cell proliferation (HeLa cell line; 48h, 25 µM, Repeat No 2) was 97% and the cell proliferation (HeLa cell line; 48h, 50 µM, Repeat No 1) was 81%. It also gave a cell proliferation (HeLa cell line; 48h, 50 µM, Repeat No 2) of 87%, a cell proliferation (HeLa cell line; 48h, 75 µM, Repeat No 1) of 91% and a cell proliferation (HeLa cell line; 48h, 75 µM, Repeat No 2) of 89%. It also gave a cell proliferation (HeLa cell line; 48h, 100 µM, Repeat No 1) of 88%, a cell proliferation (HeLa cell line; 48h, 100 µM, Repeat No 2) of 92% and a cell proliferation (T47D cell line; 24h, 10 µM, Repeat No 1) of 82%. It also gave a cell proliferation (T47D cell line; 24h, 10 µM, Repeat No 2) of 84%, a cell proliferation (T47D cell line; 24h, 25 µM, Repeat No 1) of 83% and a cell proliferation (T47D cell line; 24h, 25 µM, Repeat No 2) of 88%. It also gave a cell proliferation (T47D cell line; 24h, 50 µM, Repeat No 1) of 78%, a cell proliferation (T47D cell line; 24h, 50 µM, Repeat No 2) of 76% and a cell proliferation (T47D cell line; 24h, 75 µM, Repeat No 1) of 71%. It also gave a cell proliferation (T47D cell line; 24h, 75 µM, Repeat No 2) of 79%, a cell proliferation (T47D cell line; 24h, 100 µM, Repeat No 1) of 73% and a cell proliferation (T47D cell line; 24h, 100 µM, Repeat No 2) of 78%. For the same molecule, the cell proliferation (T47D cell line; 48h, 10 µM, Repeat No 1) was 79%, the cell proliferation (T47D cell line; 48h, 10 µM, Repeat No 2) was 71% and the cell proliferation (T47D cell line; 48h, 25 µM, Repeat No 1) was 79%. The cell proliferation (T47D cell line; 48h, 25 µM, Repeat No 2) was 81%, the cell proliferation (T47D cell line; 48h, 50 µM, Repeat No 1) was 81% and the cell proliferation (T47D cell line; 48h, 50 µM, Repeat No 2) was 79%. For the same molecule, the cell proliferation (T47D cell line; 48h, 75 µM, Repeat No 1) was 69%, the cell proliferation (T47D cell line; 48h, 75 µM, Repeat No 2) was 74% and the cell proliferation (T47D cell line; 48h, 100 µM, Repeat No 1) was 78%. It also gave a cell proliferation (T47D cell line; 48h, 100 µM, Repeat No 2) of 71%, a cell proliferation (A549 cell line; A549, 24h, 10 µM, Repeat No 1) of 88% and a cell proliferation (A549 cell line; A549, 24h, 10 µM, Repeat No 2) of 99%. It also gave a cell proliferation (A549 cell line; A549, 24h, 25 µM, Repeat No 1) of 88%, a cell proliferation (A549 cell line; A549, 24h, 25 µM, Repeat No 2) of 88% and a cell proliferation (A549 cell line; A549, 24h, 50 µM, Repeat No 1) of 92%. The cell proliferation (A549 cell line; A549, 24h, 50 µM, Repeat No 2) was 101%, the cell proliferation (A549 cell line; A549, 24h, 75 µM, Repeat No 1) was 103% and the cell proliferation (A549 cell line; A549, 24h, 75 µM, Repeat No 2) was 99%. It also gave a cell proliferation (A549 cell line; A549, 24h, 100 µM, Repeat No 1) of 87%, a cell proliferation (A549 cell line; A549, 24h, 100 µM, Repeat No 2) of 94% and a cell proliferation (A549 cell line; A549, 48h, 10 µM, Repeat No 1) of 92%. It also gave a cell proliferation (A549 cell line; A549, 48h, 10 µM, Repeat No 2) of 99%, a cell proliferation (A549 cell line; A549, 48h, 25 µM, Repeat No 1) of 94% and a cell proliferation (A549 cell line; A549, 48h, 25 µM, Repeat No 2) of 91%. For the same molecule, the cell proliferation (A549 cell line; A549, 48h, 50 µM, Repeat No 1) was 97%, the cell proliferation (A549 cell line; A549, 48h, 50 µM, Repeat No 2) was 91% and the cell proliferation (A549 cell line; A549, 48h, 75 µM, Repeat No 1) was 83%. For the same molecule, the cell proliferation (A549 cell line; A549, 48h, 75 µM, Repeat No 2) was 87%, the cell proliferation (A549 cell line; A549, 48h, 100 µM, Repeat No 1) was 91% and the cell proliferation (A549 cell line; A549, 48h, 100 µM, Repeat No 2) was 87%.
